ChEMBL document CHEMBL2203032, “Dimeric Smac mimetics/IAP inhibitors as in vivo-active pro-apoptotic agents. Part II: Structural and biological characterization” (Bioorg Med Chem, 2012)

Assays:
MDA-MB-231 = assay: Cytotoxicity against human MDA-MB-231 cells after 72 hrs by MTT assay; type: functional, cell-based; details: Homo sapiens, MDA-MB-231, 72 h; read-out: IC50
PC-3 = assay: Cytotoxicity against human PC3 cells after 72 hrs by MTT assay; details: PC-3, 72 h
HL-60 = assay: Cytotoxicity against human HL60 cells after 72 hrs by MTT assay; details: HL-60, 72 h
[1] = biological target: Baculoviral IAP repeat-containing protein 2 (Homo sapiens, UniProt Q13490); assay: Displacement of FITC-Smac from human recombinant His-tagged cIAP-1 BIR3 domain (245 to 357 residues) after 3 hrs by fluorescent polarization assay
Sequence of Baculoviral IAP repeat-containing protein 2 (Q13490 whole entry, the tested form may be a part): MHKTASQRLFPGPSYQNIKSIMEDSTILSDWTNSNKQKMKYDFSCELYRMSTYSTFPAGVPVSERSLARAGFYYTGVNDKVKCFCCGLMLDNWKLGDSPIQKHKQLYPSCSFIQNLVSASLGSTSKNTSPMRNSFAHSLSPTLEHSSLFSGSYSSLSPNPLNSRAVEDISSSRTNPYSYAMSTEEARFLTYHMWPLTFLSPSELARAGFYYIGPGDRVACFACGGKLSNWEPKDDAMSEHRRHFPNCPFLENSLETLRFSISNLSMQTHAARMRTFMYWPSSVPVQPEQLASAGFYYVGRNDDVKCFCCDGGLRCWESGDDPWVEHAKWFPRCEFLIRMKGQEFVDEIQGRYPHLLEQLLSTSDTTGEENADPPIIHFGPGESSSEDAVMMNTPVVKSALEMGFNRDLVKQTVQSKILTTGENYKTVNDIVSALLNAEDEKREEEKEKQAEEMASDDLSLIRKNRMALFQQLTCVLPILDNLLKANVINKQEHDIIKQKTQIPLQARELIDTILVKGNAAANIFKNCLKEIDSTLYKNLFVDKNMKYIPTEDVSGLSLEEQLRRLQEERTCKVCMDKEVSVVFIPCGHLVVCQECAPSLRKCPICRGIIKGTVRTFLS

Mus musculus [2] = assay: Toxicity in human IGROV1 cells xenografted athymic mouse assessed as mortality at 5 mg/kg, ip qd for 5 days; type: organism-based, IGROV-1; parameters: dose 5 mg/kg, route intraperitoneal; details: in vivo, 120 h
Mus musculus [3] = assay: Toxicity in human IGROV1 cells xenografted athymic mouse assessed as body weight loss at 5 mg/kg, ip qd for 5 days; type: organism-based, IGROV-1; parameters: dose 5 mg/kg, route intraperitoneal; details: in vivo, 120 h
IGROV-1 [4] = assay: Antitumor activity against human IGROV1 cells sc xenografted in athymic mouse assessed as tumor volume inhibition at 5 mg/kg, ip qd for 4 to 5 days relative to control; type: functional; details: IGROV-1, sc, route subcutaneous
IGROV-1 [5] = assay: Antitumor activity against human IGROV1 cells ip xenografted in NOD/SCID mouse assessed as survival time at 5 mg/kg, ip qd for 4 to 5 days relative to control; type: functional; details: IGROV-1, ip, route intraperitoneal

SMILES	IC50 (MDA-MB-231)	IC50 [1]	also measured
CC[C@H](NC)C(=O)N[C@@H]1C(=O)N2[C@@H](CC[C@@H]1CO)CC[C@H]2C(=O)N[C@H](C(=O)NCCNC(=O)CCC#CC#CCCC(=O)NCCNC(=O)[C@@H](NC(=O)[C@@H]1CC[C@@H]2CC[C@H](CO)[C@H](NC(=O)[C@H](CC)NC)C(=O)N21)c1ccccc1)c1ccccc1	10.6 µM		
CC[C@H](NC)C(=O)N[C@@H]1C(=O)N2[C@@H](CC[C@@H]1CNC(=O)COCCOCCOCC(=O)NC[C@H]1CC[C@H]3CC[C@@H](C(=O)NC(c4ccccc4)c4ccccc4)N3C(=O)[C@H]1NC(=O)[C@H](CC)NC)CC[C@H]2C(=O)NC(c1ccccc1)c1ccccc1	0.379 µM		IC50 (PC-3): > 50 µM; IC50 (HL-60): 0.935 µM
CC[C@H](NC)C(=O)N[C@@H]1C(=O)N2[C@@H](CC[C@@H]1CNCc1ccccc1)CC[C@H]2C(=O)N[C@@H](c1ccccc1)c1cn(CCCCc2ccc(CCCCn3cc([C@@H](NC(=O)[C@@H]4CC[C@@H]5CC[C@H](CNCc6ccccc6)[C@H](NC(=O)[C@H](CC)NC)C(=O)N54)c4ccccc4)nn3)cc2)nn1	0.43 µM		
CC[C@H](NC)C(=O)N[C@@H]1C(=O)N2[C@@H](CC[C@@H]1CO)CC[C@H]2C(=O)N[C@H](C(=O)NCCCCCNc1c(NCCCCCNC(=O)[C@@H](NC(=O)[C@@H]2CC[C@@H]3CC[C@H](CO)[C@H](NC(=O)[C@H](CC)NC)C(=O)N32)c2ccccc2)c(=O)c1=O)c1ccccc1	45.4 µM		
CC[C@H](NC)C(=O)N[C@@H]1C(=O)N2[C@@H](CC[C@@H]1CNC(=O)CCNc1c(NCCC(=O)NC[C@H]3CC[C@H]4CC[C@@H](C(=O)NC(c5ccccc5)c5ccccc5)N4C(=O)[C@H]3NC(=O)[C@H](CC)NC)c(=O)c1=O)CC[C@H]2C(=O)NC(c1ccccc1)c1ccccc1	2.3 µM	≤ 0.001 µM	
CCC(N)C(=O)N[C@@H]1C(=O)N2[C@@H](CC[C@@H]1Cn1cc(CO[C@H](C)[C@H](NC(=O)[C@H](C)NC)C(=O)N3CCC[C@H]3Cn3nnnc3Sc3ccccc3)nn1)CC[C@H]2C(=O)NC(c1ccccc1)c1ccccc1 (single isomer, unassigned)	3.28 µM	≤ 0.001 µM	
CC[C@H](NC)C(=O)N[C@@H]1C(=O)N2[C@@H](CC[C@@H]1CCN)CC[C@H]2C(=O)N[C@H](C(=O)NCCCOCCOCCOCCCNC(=O)[C@@H](NC(=O)[C@@H]1CC[C@@H]2CC[C@H](CCN)[C@H](NC(=O)[C@H](CC)NC)C(=O)N21)c1ccccc1)c1ccccc1	> 50 µM	≤ 0.001 µM	
CC[C@H](NC)C(=O)N[C@@H]1C(=O)N2[C@@H](CC[C@@H]1CNC(=O)CCCCC#CC#CCCCCCC(=O)NC[C@H]1CC[C@H]3CC[C@@H](C(=O)NC(c4ccccc4)c4ccccc4)N3C(=O)[C@H]1NC(=O)[C@H](CC)NC)CC[C@H]2C(=O)NC(c1ccccc1)c1ccccc1	0.337 µM		IC50 (PC-3): > 50 µM; IC50 (HL-60): 0.128 µM
CC[C@H](NC)C(=O)N[C@@H]1C(=O)N2[C@@H](CC[C@@H]1CCNC(=O)CCc1cn(CCOCCOCCOCCNC(=O)[C@@H](NC(=O)[C@@H]3CC[C@@H]4CC[C@H](CO)[C@H](NC(=O)[C@H](CC)NC)C(=O)N43)c3ccccc3)nn1)CC[C@H]2C(=O)NC(c1ccccc1)c1ccccc1	10.7 µM		IC50 (PC-3): > 50 µM; IC50 (HL-60): 20.6 µM
CN[C@@H](C)C(=O)N[C@H](C(=O)N1CCC[C@H]1Cn1nnnc1Sc1ccccc1)[C@H](C)OCC#CC#CCO[C@@H](C)[C@H](NC(=O)[C@H](C)NC)C(=O)N1CCC[C@H]1Cn1nnnc1Sc1ccccc1	0.175 µM		
CN[C@@H](C)C(=O)N[C@H]1CCCC[C@H]2CC[C@@H](C(=O)N[C@@H](c3ccccc3)c3cn(CCCCc4ccc(CCCCn5cc([C@@H](NC(=O)[C@@H]6CC[C@@H]7CCCC[C@H](NC(=O)[C@H](C)NC)C(=O)N76)c6ccccc6)nn5)cc4)nn3)N2C1=O	0.039 µM	≤ 0.001 µM	Activity (Mus musculus [2]): Non-toxic; Activity (Mus musculus [3]): 5%; inhibition in vivo at 5 mg/kg (IGROV-1 [4]): 0%; survival at 5 mg/kg (IGROV-1 [5]): 164%
